According to ChEMBL document CHEMBL1201862, “PubChem BioAssay data set” (2004):
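In this assay, cells in 96-well plates receive the compound at five concentrations for 48 hours. Endpoints are linearly interpolated between the surrounding concentrations. Here, GI50 denotes the concentration required for 50% inhibition of growth.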 Activity calls are given as the source filed them. Cut-off read from the data, not from the text of the source: active = GI50 up to about 1.1 µM and inactive = higher.

Key:
Experiment in all cases: growth of human tumour cells (NCI), 48 h
[1] = system: OVCAR-3
[2] = system: HOP-62
[3] = system: OVCAR-8
[4] = system: SK-MEL-2
[5] = system: U-251
[6] = system: SF-295
[7] = system: SN12C
[8] = system: HCC 2998
[9] = system: NCI-H522
[10] = system: RPMI-8226
[11] = system: A549
[12] = system: MOLT-4
[13] = system: CAKI-1
[14] = system: SNB-75
[15] = system: OVCAR-4
[16] = system: OVCAR-5

Measured: GI50

Cc1csc(=S)n1OC(=O)NC1CCCCC1
inactive: [1] > 63.8 µM | [2] > 100 µM | [3] > 100 µM | [4] 68.4 µM | [5] 63.8 µM | [6] > 100 µM | [7] > 100 µM | [8] > 100 µM | [9] 18.1 µM | [10] 23.6 µM | [11] > 73.3 µM | [12] 9.77 µM | [13] > 100 µM | [14] > 79.4 µM

Cc1ccc(NC(=S)SCCC(=O)O)cc1
inactive: [15] > 100 µM | [1] > 100 µM | [2] > 100 µM | [3] > 100 µM | [4] > 100 µM | [16] > 100 µM | [5] > 100 µM | [6] > 100 µM | [7] > 100 µM | [8] > 100 µM | [9] > 100 µM | [10] > 100 µM | [11] > 100 µM | [12] > 100 µM | [13] 81.8 µM

CCC12C=CCN3CCC4(C(=C(C(=O)OC)C1)Nc1ccccc14)[C@H]32 (some centres not stated)
inactive: [15] 29.4 µM | [1] 30.8 µM | [4] 19.1 µM | [16] 70.8 µM | [6] 28.3 µM | [8] 33.3 µM | [9] 22.1 µM | [11] 34.7 µM | [12] 26.7 µM | [13] > 100 µM | [14] 22 µM

CCOC(=O)C(Cc1c[nH]c2cc([N+](=O)[O-])ccc12)NS(=O)(=O)c1ccc2ccccc2c1 (configuration not stated)
inactive: [15] 10.9 µM | [1] 16.7 µM | [2] 15.7 µM | [3] 21.4 µM | [4] 17.4 µM | [5] 17.6 µM | [6] 17.3 µM | [7] 18.7 µM | [8] 24.2 µM | [9] 16.3 µM | [10] 22 µM | [11] 30.6 µM | [12] 26 µM | [14] 17.1 µM

CO[C@@]12CC(=O)/C(=C(O)\C=C\c3ccccc3)C(=O)[C@]1(OC)Cc1ccccc1O2
inactive: [15] 53.8 µM | [1] 26.2 µM | [2] 21.6 µM | [3] 22.3 µM | [4] 36.8 µM | [16] 41.7 µM | [5] 21.1 µM | [6] 29.8 µM | [7] 30.6 µM | [8] 22.3 µM | [9] 29.9 µM | [11] 25.7 µM | [12] 29.7 µM | [14] 77.1 µM

O=c1cccccc1NCCNc1cccccc1=O
inactive: [15] > 100 µM | [1] > 100 µM | [2] > 100 µM | [3] > 100 µM | [4] > 100 µM | [16] > 100 µM | [5] > 100 µM | [6] > 100 µM | [7] 13.6 µM | [9] > 100 µM | [10] > 100 µM | [11] > 100 µM | [12] > 100 µM | [13] > 100 µM | [14] > 10 µM

OCc1ccc(C2CC(c3ccco3)=NN2c2ccccc2)o1 (configuration not stated)
inactive: [15] > 100 µM | [1] > 100 µM | [2] > 100 µM | [3] > 100 µM | [4] > 100 µM | [16] > 100 µM | [5] > 100 µM | [6] > 100 µM | [7] > 100 µM | [9] > 100 µM | [10] > 100 µM | [11] > 100 µM | [12] > 100 µM | [14] 20 µM

Cc1cccc(Cl)c1NC(=O)c1cccc([N+](=O)[O-])c1O
inactive: [15] 24.5 µM | [1] 27.5 µM | [2] 20.1 µM | [3] 48.1 µM | [16] 23.9 µM | [5] 33.7 µM | [6] 28.9 µM | [7] 31.9 µM | [8] 31.7 µM | [9] 20.4 µM | [10] 21.2 µM | [11] 35.7 µM | [12] 29.2 µM | [13] 46.1 µM | [14] 33.9 µM
